{"source": "patent US20050042661A1", "about": "“Use of novel compounds to release nucleotides from living cells” (priority 2003, published 2005)", "key": {"[1]": {"test_system": "whole blood diluted with physiological saline 200 times", "test": "Extraction efficiency test of ATP, whole blood", "type": "cell-based", "conditions": "Whole blood diluted 200 times", "experimental": "(§1) The extraction efficiency of the release reagent based on a quaternary ethoxylated amine and an ethoxylated amine mixture was also tested against the boiling tris-EDTA buffer and the perchloric acid extraction methods. The samples consisted of whole blood diluted with physiological saline 200 times, a suspension of E. coli bacteria in concentration of one million cells per milliliter, and a suspension of green algae, Chlorella sp. […]\n(§2) Measurement of ATP by bioluminescence: 100 microliter aliquots of extracted sample solution were pipetted into transparent glass cuvettes and these were placed into the light-tight reaction chamber of a photon counter. […] The light emission was integrated for 10 seconds and the results read on the digital display as relative light units. The relative light units were converted to ATP by internal standardization whereby a known quantity of ATP standard was added into an aliquot of the extracted sample and measured as above. […] By subtracting the reading of the sample from that of the sample+added ATP standard a conversion factor for relative light units to ATP was calculated."}, "[2]": {"test_system": "E. coli bacteria", "test": "Extraction efficiency test of ATP, E. coli suspension", "type": "cell-based", "conditions": "one million cells per milliliter", "experimental": "as §1, §2"}}}
{"smiles": "[O-][Cl+3]([O-])([O-])O", "note": "[Perchloric acid method, perchloric acid]", "values": [{"measurement": "ATP extraction efficiency", "setting": "[1]", "result": 7, "unit": "%"}, {"measurement": "ATP extraction efficiency", "setting": "[2]", "result": 3, "unit": "%"}]}
